Measurements reported in publication PMC5526870, “Fragment optimization for GPCRs by molecular dynamics free energy calculations: Probing druggable subpockets of the A2A adenosine receptor binding site” (Scientific Reports, 2017).
Where “and” joins values, the source holds several entries; their conditions need not be identical. Equal values may be shown once. Read-outs that look alike come from different tables or passages of the source.

Legend:
[1] = molecular target: T1, human A3AR (Homo sapiens, UniProt P0DMS8); test: Radioligand binding assay, agonist [125I]AB-MECA (0.2 nM), membranes of CHO or HEK293 cells; conditions: for Ki: mean ± standard error, n=3, read-out: Ki A3; for inhibition at 300 µM: read-out: % inhibition at 300 µM A3, 300 µM, mean ± standard error, n=3
T1 construct: expressed in transfected cells; host or cells: CHO or HEK293 cells (membrane preparations)
T1 sequence (P0DMS8 1-318): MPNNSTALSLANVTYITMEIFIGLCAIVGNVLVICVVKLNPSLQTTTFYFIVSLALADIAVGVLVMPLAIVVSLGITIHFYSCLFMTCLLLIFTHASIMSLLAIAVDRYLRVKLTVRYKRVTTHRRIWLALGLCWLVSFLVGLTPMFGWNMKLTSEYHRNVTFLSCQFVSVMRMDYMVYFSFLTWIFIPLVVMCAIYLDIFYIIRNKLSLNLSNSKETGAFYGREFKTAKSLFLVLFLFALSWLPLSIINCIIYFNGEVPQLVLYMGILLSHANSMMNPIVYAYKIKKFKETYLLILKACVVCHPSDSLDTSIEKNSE
Method: (§1) Radioligand binding assays for compounds 25–36 were performed as previously described[61] using membrane preparations from Chinese hamster ovary (CHO) or human embryonic kidney (HEK)293 cells stably expressing the human A1, A2A or A3AR. The following radioligands: antagonist [^3H]DPCPX (0.5 nM); antagonist [^3H]ZM241385 (1.0 nM); and agonist [^125I]AB-MECA (0.2 nM) were used for A1, A2A, and A3ARs, respectively. Binding parameters were calculated using Prism 6 software (GraphPAD, San Diego, CA, USA). IC50 values obtained from competition curves were converted to Ki values using the Cheng-Prusoff equation. Data were expressed as mean ± standard error. The radioligand binding assays for compounds 18, 20, 21, and 23 were performed as previously described. Each Ki value was determined from at least three independent experiments.
(§2) Supplementary Table S2. Experimental data for compounds 25-36. Radioligand binding
(§3) assays were performed using membranes of mammalian cells overexpressing one AR subtype.
(§4) aData are expressed as mean ± standard error resulting from three independent experiments.

[2] = molecular target: T2, human A2AAR (Homo sapiens, UniProt P29274); test: Radioligand binding assay, antagonist [3H]ZM241385 (1.0 nM), membranes of CHO or HEK293 cells, compounds 25-36; conditions: for Ki / inhibition at 300 µM: [3H]ZM241385, mean ± standard error, n=3; for Ki: read-out: Ki A2A; for inhibition at 300 µM: read-out: % inhibition at 300 µM A2A (displacement of radioligand binding); for fold increase of affinity compared to compound 32: experimentally determined, A2AAR
T2 construct: expressed in transfected cells; host or cells: CHO cells
T2 sequence (P29274 whole entry): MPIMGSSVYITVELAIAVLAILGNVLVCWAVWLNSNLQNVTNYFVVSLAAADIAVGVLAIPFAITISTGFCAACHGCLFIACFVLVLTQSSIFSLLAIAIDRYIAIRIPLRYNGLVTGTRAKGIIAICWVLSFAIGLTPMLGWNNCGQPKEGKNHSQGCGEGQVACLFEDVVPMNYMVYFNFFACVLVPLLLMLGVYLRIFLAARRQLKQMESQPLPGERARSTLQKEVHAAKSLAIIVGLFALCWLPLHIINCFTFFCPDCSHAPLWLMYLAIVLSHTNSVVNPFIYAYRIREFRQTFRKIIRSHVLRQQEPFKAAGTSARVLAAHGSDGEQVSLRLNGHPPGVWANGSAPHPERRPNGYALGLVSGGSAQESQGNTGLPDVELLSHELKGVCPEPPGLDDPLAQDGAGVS
Method: as §1, §2, §3, §4

[3] = molecular target: T3, human A1AR (Homo sapiens, UniProt P30542); test: Radioligand binding assay, antagonist [3H]DPCPX (0.5 nM), membranes of CHO or HEK293 cells; conditions: for inhibition at 300 µM: read-out: % inhibition at 300 µM A1
T3 construct: expressed in transfected cells; host or cells: CHO or HEK293 cells (membrane preparations)
T3 sequence (P30542 1-326): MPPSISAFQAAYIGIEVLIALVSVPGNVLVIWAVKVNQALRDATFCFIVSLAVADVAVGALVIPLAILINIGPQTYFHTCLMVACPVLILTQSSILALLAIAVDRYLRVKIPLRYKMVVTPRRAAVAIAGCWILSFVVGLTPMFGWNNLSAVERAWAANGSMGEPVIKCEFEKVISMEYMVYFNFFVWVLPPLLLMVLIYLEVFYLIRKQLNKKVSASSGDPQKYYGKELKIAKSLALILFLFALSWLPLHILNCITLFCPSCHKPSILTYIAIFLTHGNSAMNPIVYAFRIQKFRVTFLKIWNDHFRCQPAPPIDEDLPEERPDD
Method: Binding parameters were calculated using Prism 6 software (GraphPAD, San Diego, CA, USA). IC50 values obtained from competition curves were converted to Ki values using the Cheng-Prusoff equation. Data were expressed as mean ± standard error. […] Each Ki value was determined from at least three independent experiments.
Supplementary Table S2. […] Radioligand binding
as §3

[4] = molecular target: T2, human A2AAR; conditions: 95% confidence interval in brackets, cited from earlier work
[5] = molecular target: T2, human A2AAR; test: Functional assay: inhibition of NECA-induced cAMP production (GloSensor) in CHO cells; format: cell-based; conditions: against 1 µM NECA, CHO cells expressing human A2AAR
Method: CHO cells, stably transfected with the human A2AAR and transiently with firefly luciferase biosensor, were grown adherently and maintained in Dulbecco’s Modified Eagles Medium with nutrient mixture F12 (DMEM/F12 with phenol red), supplemented with 10% FBS (Fetal Bovine Serum), 100 U/mL penicillin, 100 µg/mL streptomycin, 2.5µg/mL amphotericin, 1 mM Sodium pyruvate, and 0.1 mg/mL Geneticin (G418) at 37 °C, and aerated with 5% CO2: 95% O2. Cells were harvested in CO2 independent media and counted in a Neobauer chamber. The desiderate cell number was incubated in equilibration medium containing a 3% v/v GloSensor cAMP reagent stock solution, 10% FBS and 87% CO2 independent medium. After 2 hours of incubation cells were dispensed in wells of 384 well plate and when a steady-state basal signal was obtained, different concentrations of antagonists were added. After 10 min, 1 µM of 5′-N-ethylcarboxamidoadenosine (NECA), the reference agonist, was injected. Responses were expressed as percentage of the Maximal Relative Luminescence Units (RLU). Inhibition-response curves were fitted by a non-linear regression using a Prism 4.0 program (GraphPad Software, San Diego, CA, USA).

[6] = molecular target: T2, human A2AAR; test: Radioligand binding assay at the A2AAR for adenine derivatives 1-23 (displacement of [3H]NECA, CHO cells)
Method: as §1
Supplementary Table S1. Binding data for compounds 1-23. […]
aKi value from Lambertucci et al.1 bKi value from Volpini et al.2 cDisplacement of specific [3H]NECA binding at human A2AAR expressed in CHO cells measured in this work.
Data is expressed as geometric means with 95% confidence limits (n=3-6). […]

[7] = [3H]DPCPX, mean ± standard error, n=3
[8] = [3H]DPCPX, mean ± standard error, n=3, read-out: Ki A1
[9] = displacement of specific [3H]NECA binding at human A2AAR expressed in CHO cells, measured in this work

CC(C)c1nc2c(N)cccn2n1 [Compound 31]
Ki [1]: 102 ± 32 µM | Ki [2]: 223 µM | Ki [3]: 50.1 ± 22.6 µM

C=CCCn1cnc2c(N)ncnc21 [Compound 17]
Ki ([4]; ref Lambertucci et al. [22]): 8.5 µM

CCCn1cnc2c(N)ncnc21 [Compound 13]
Ki ([4]; ref Lambertucci et al. [22]): 9.6 µM

Nc1cccn2ncnc12 [Compound 28, [1,2,4]triazolo[1,5-a]pyridin-8-amine]
Ki [1]: 153 ± 31 µM | inhibition at 300 µM [2]: 17% | inhibition at 300 µM [3, 7]: 22 ± 6%

Nc1ncnc2ncnn12 [Compound 25, [1,2,4]triazolo[1,5-a][1,3,5]triazin-7-amine]
inhibition at 300 µM [1]: 39 ± 2% | inhibition at 300 µM [2]: 34% | inhibition at 300 µM [3, 7]: 27 ± 4%

CC(=O)Nc1nc2cc(C)ccc2s1 [Compound 34]
Ki [1]: 1.1 ± 0.2 µM | Ki [2]: 11.6 ± 1.2 µM | fold increase of affinity compared to compound 32 [2]: 7 fold | Ki [3, 8]: 8.4 ± 0.9 µM

Cc1nc2ncnc(N)n2n1 [Compound 26]
inhibition at 300 µM [1]: 50 ± 4% | Ki [2]: 78.5 µM | inhibition at 300 µM [3, 7]: 44 ± 4%

CCn1c(Br)nc2c(N)ncnc21 [Compound 5]
Ki ([4]; ref Lambertucci et al. [22]): 0.052 µM | inhibition of A2AAR mediated cAMP production [5]: close to completely inhibit the agonist effect of 1 µM NECA

Nc1ncnc2c1ncn2CCO [Compound 10]
Ki ([4]; ref Lambertucci et al. [22]): 11 µM

CCCn1c(Br)nc2c(N)ncnc21 [Compound 7]
Ki ([4]; ref Lambertucci et al. [22]): 0.3 µM

Nc1ncnc2c1ncn2C1CCCC1 [Compound 15]
Ki ([4]; ref Lambertucci et al. [22]): 1.8 µM

CCn1c(C)nc2c(N)ncnc21 [Compound 18]
fold increase of binding affinity compared to compound 9 ([6]; C8-methyl substituent): 10 fold | Ki [6, 9]: 0.218 ± 0.061 µM

CC(C)Cn1cnc2c(N)ncnc21 [Compound 11]
Ki ([4]; ref Lambertucci et al. [22]): > 100 µM

Nc1ncnc2c1ncn2CCCO [Compound 12]
Ki ([4]; ref Lambertucci et al. [22]): 3.9 µM

Cn1c(Br)nc2c(N)ncnc21 [Compound 3]
experimental improvement in binding free energy, compound 3 versus compound 2 ([6]; C8-bromine addition): 2.4 kcal/mol | fold increase in affinity compared to compound 2 ([6]; C8-bromine versus unsubstituted compound 2): 58 fold | experimental improvement of binding affinity, compound 3 versus compound 4 ([6]; addition of N9-methyl group): 2.0 kcal/mol

CCn1cnc2c(N)ncnc21 [Compound 9]
Ki ([4]; ref Lambertucci et al. [22]): 2.2 µM

CCn1c(OC(C)C)nc2c(N)ncnc21 [Compound 23]
Ki ([4]; ref Volpini et al. [23]): > 100 µM | Ki ([6]; compound retested in a radioligand binding assay at the A2AAR, this work): 0.095 µM | fold loss of binding affinity relative to compound 21 ([6]; from published affinity of 23): > 1000 fold | inhibition of A2AAR mediated cAMP production [5]: close to completely inhibit the agonist effect of 1 µM NECA

CC(=O)Nc1nc2c(C)cccc2s1 [Compound 33]
Ki [1]: 2.3 ± 0.5 µM | Ki [2]: 10.7 ± 2.3 µM | fold increase of affinity compared to compound 32 [2]: 7 fold | Ki [3, 8]: 17 ± 1.2 µM

CC(=O)Nc1nc2ccc(C)cc2s1 [Compound 35]
Ki [1]: 2.9 ± 0.4 µM | Ki [2]: 48.6 ± 2.6 µM | fold increase of affinity compared to compound 32 [2]: two-fold increase of affinity | Ki [3, 8]: 17.8 ± 1.7 µM

COc1cccc2sc(NC(C)=O)nc12 [Compound 36]
Ki [1]: 1 ± 0.2 µM | Ki [2]: 1.8 ± 0.05 µM | experimental increase of affinity compared to compound 32, as free energy ([2]; corresponding to the 44-fold increase): 2.3 kcal/mol | fold increase of affinity compared to compound 32 [2]: 44 fold | Ki [3, 8]: 7.8 ± 0.5 µM

CCc1nc2c(N)cccn2n1 [Compound 30]
Ki [1]: 110 ± 17 µM | inhibition at 300 µM [2]: 49% | Ki [3]: 97.2 ± 22.5 µM

CC(C)Cn1c(Br)nc2c(N)ncnc21 [Compound 8]
Ki ([4]; ref Lambertucci et al. [22]): 6 µM

CC(=O)Nc1nc2ccccc2s1 [Compound 32, N-(benzo[d]thiazol-2-yl)acetamide]
Ki [1]: 0.81 ± 0.17 µM | Ki [2]: 79.1 µM and 79 µM | Ki [3, 8]: 11.2 ± 2.4 µM

Cn1cnc2ncnc(N)c21 [Compound 1]
Ki ([4]; ref Lambertucci et al. [22]): > 100 µM

Nc1ncnc2c1nc(Br)n2C1CCCC1 [Compound 14]
Ki ([4]; ref Lambertucci et al. [22]): 1.9 µM

CCOc1nc2c(N)ncnc2n1CC [Compound 22]
Ki ([4]; ref Volpini et al. [23]): 0.046 µM | inhibition of A2AAR mediated cAMP production [5]: close to completely inhibit the agonist effect of 1 µM NECA

Nc1ncnc2c1nc(Br)n2CCO [Compound 6]
Ki ([4]; ref Lambertucci et al. [22]): 0.62 µM

Cc1nc2c(N)cccn2n1 [Compound 29]
inhibition at 300 µM [1]: 44 ± 4% | inhibition at 300 µM [2]: 31% | inhibition at 300 µM [3, 7]: 38 ± 6%

CSc1nc2ncnc(N)n2n1 [Compound 27]
Ki [1]: 119 ± 42 µM | Ki [2]: 20 µM | Ki [3]: 97.3 ± 3.5 µM

CCn1c(O)nc2c(N)ncnc21 [Compound 20]
Ki [6, 9]: 1.14 ± 0.29 µM
